Laboratory results as given in patent US20230022032A1, “uPAR-TARGETED PHOTOTHERMAL OPTICAL PROBES FOR PHOTOTHERMAL THERAPY” (RIGSHOSPITALET, priority 2019, published 2023).
Entries after “also recorded” stand apart in the source; their conditions may differ.

What was measured:
[1] = test system: subcutaneous U-87 MG.luc2 tumors; assay: In vivo photothermal therapy (PTT) in subcutaneous mouse model of human glioblastoma; parameters: species or system mice; details: for median survival: endpoint tumor 1000 mm^3; for highest temperature reached on tumor surface during PTT: 46 nmol injected four hours before PTT, 5 minutes NIR light at 2 W/cm^2
Description: The animal experiments were approved by the Danish Animal Welfare Council, Ministry of Justice. For the in vivo studies, U-87 MG.luc2 cells were cultured in Dulbecco's modified eagle medium supplemented with 10% fetal bovine serum and 1% penicillin-streptomycin (Thermo Fisher Scientific) at 37° C. and in 5% CO2. When cells reached 70% confluence, they were harvested and 2-3×10^6 cells in 100 μl of PBS were inoculated into the left flank of NMRI nude female mice (Janvier Labs, France). Animals were left to grow tumors until they reached 300 mm^3 (day −1). From then on, tumors were measured every other day with the use of a caliper, and tumor volume calculated through the formula: (length×width^2)*0.5. When tumors reached 1,000 mm^3, animals were euthanized.
When tumors reached 300 mm^3, mice were divided into 5 groups: ICG-Glu-Glu-AE105 group (mice injected with 46 nmol ICG-Glu-Glu-AE105 four hours before PTT, n=6); ICG group (mice injected with 46 nmol of unconjugated ICG four hours before PTT, n=4); Saline group (mice injected with saline four hours before PTT, n=4); sham group (mice injected with ICG-Glu-Glu-AE105 and no PTT, n=5) and a control group (no injection, no PTT, n=4). Animals were given analgesia (buprenorphin, 0.3 mg/ml) right before the laser treatment and every 6 to 8 hours until deemed necessary. For PTT, animals were anesthetized with sevoflurane as previously described and placed under the laser beam for five minutes at 2 W/cm^2. The tumors were swabbed with glycerol, an index-matching agent, prior to the laser treatment to facilitate light penetration (Deng et al. 2011, Vargas et al., 1999, Simon et al., 2019). The temperatures reached on the tumor surface were detected with a thermal camera, as described for the in vitro experiments.
Animals were bioluminescence-scanned a day before PTT, on PTT day and afterwards every other day until endpoints were reached, using IVIS Lumina XR and acquisition software Living Image (Caliper life Sciences, Hopkinton, Calif., USA). For these bioluminescence scans, luciferin was injected intraperitoneally ([…]) ten minutes before the scan. Animals were then anesthetized as described in the previous sections and placed in the prone position. The excitation filter was set to 710 nm and the emission filter was set on ICG.
The fluorescence scans were performed to detect ICG signal before and after PTT using the Fluobeam®800 NIR-camera as described for the accumulation study.
The Kaplan-Meier method was used to create the survival curves, and they were compared through the log-rank test. The maximum temperatures on tumor surface were compared using one-way ANOVA with Tukey's multiple comparisons test. The fluorescence emitted by ICG measured by the Fluobeam before and after PTT was compared using two-way ANOVA with Sidak's multiple comparisons test. The data was plotted in Prism7 and shown as mean±SEM.
After determining ideal dose and treatment schedule, different groups of mice were set up in order to test the ability of ICG-Glu-Glu-AE105 as a photothermal agent, capable of specifically ablating tumors in vivo. For this, mice were injected subcutaneously with U-87 MG.luc2 cells, a type of glioblastoma cells expressing luciferase, which allows for bioluminescence imaging when luciferin is injected. The bioluminescence signal, detected when the reactive luciferin was injected and oxidized by the enzyme luciferase, serves as a way to determine treatment success and follow tumor growth. […] The timeline for the experiments can be seen on FIG. 3. On baseline (day −1), mice underwent a pre-treatment bioluminescence scan. Following, on treatment day (day 0), mice were injected with either ICG-Glu-Glu-AE105, ICG alone, saline or not injected as it was the case for the control group. Approximately four hours after injection, all groups but sham and control were irradiated for 5 minutes with NIR light at 2 W/cm2, and the temperatures on tumor surface were measured with a FLIR camera. […]

[2] = test system: U-87 MG.luc2 tumor tissue; assay: Tumor response ex vivo: H&E staining and uPAR immunohistochemistry of tumors resected 2 days after PTT; assay type: in vivo, mice; details: n=2 per group
Description: Tumors were resected from n=2 mice per group two days after PTT. Tumors were fixated in formaldehyde overnight, and afterwards conserved in ethanol for their later embedding in paraffin. To perform the histology experiments, tumors were resected in 4 μm slices in a microtome (Thermo Scientific Microm HM355S). The tissue slides were left to dry for at least 1.5 hours, and then heated first at 40 and after at 60° C. Following, slides were submerged in HistoClear to achieve deparaffinization and rehydrated through a series of EtOH to water. For hematoxylin and eosin staining, the tissue slides were stained with hematoxylin for 5 minutes, rinsed and stained with eosin for 3 minutes.
For immunohistochemistry, the rehydrated tissue slides underwent heat-induced epitope retrieval (HIER) by covering the tissue slides with 250 mL citrate buffer (pH=6), and steaming them at 100° C. for 15 minutes. […]
Finally, tumors from mice receiving the different treatments (n=2) were resected at day 2 (after PTT) and H&E stained to confirm changes in tumor morphology due to treatment ex vivo (FIG. 7). […] Finally, macrophages were detected through CD68 staining to observe co-localization with uPAR signal, which could be noted, again, for all viable tumor regions.

[3] = In vitro heating of solutions under NIR laser irradiation (FLIR thermal camera); assay type: physicochemical; details: NIR laser 2 W/cm^2; for temperature reached in solution: 228 nmol; for temperature reached in solution / maximum temperature in solution: five minutes irradiation; for maximum temperature of solution: irradiated for ten minutes
Description: The ability of ICG to generate high temperatures when irradiated with NIR light was measured in vitro. Different concentrations (228, 46, 23 and 12 nmol) of unconjugated ICG and ICG-Glu-Glu-AE105 in solution (0.2 g/ml (2-hydroxypropyl)-β-cyclodextrin in water and DMSO) were placed in a plastic cuvette under the laser beam. The laser was turned on for five minutes at 2 W/cm2 and the temperature measured with a thermal camera (FLIR T-440 camera), taking images every 30 seconds. The images were analyzed using the FLIR tools software.
In order to test the ability of ICG-Glu-Glu-AE105 to heat under NIR light, different concentrations of the compound in solution were placed in a plastic cuvette under a laser, at an intensity of 2 W/cm^2. The samples were then irradiated for ten minutes and the temperatures detected with a FLIR camera. For the highest concentration tested, 0.5 mg/ml, temperature increased fast in the first minutes and slower and in a more steady way after that, reaching a maximum temperature of 70.8±3° C. after ten minutes of irradiation. In contrast, lower concentrations reached their maximum peak fast; at five minutes for 0.1 mg/ml (62.7±1.6° C.), and around two to three minutes for 0.05 and 0.025 mg/ml (51.4±0.9 and 40.7±0.4° C. respectively). From that point, temperatures started to decrease most likely due to the irreversible degradation of ICG, which impedes heat generation (Wang et al., 2013).
Different concentrations of ICG in solution were irradiated as it was done for the conjugated dye. […] As expected, the maximum temperature was very similar to the one reached by 0.5 mg/ml of ICG-Glu-Glu-AE105, because a concentration of 0.5 mg/ml of ICG-Glu-Glu-AE105 corresponds to approximately 0.18 mg/ml of ICG alone. […] 0.05 mg/ml of ICG reached a maximum of 68.8±0.7° C. after seven minutes of irradiation, meanwhile 0.025 mg/ml of ICG peaked at three minutes at 50±0.2° C.
5 minutes irradiation trials were also made with reference to testing the ability of ICG-Glu-Glu-AE105 to heat under NIR light. See the set up with the compound in solution placed in a plastic cuvette under a laser beam (intensity 2 W/cm^2) in FIG. 1a. In this case the samples were irradiated for five minutes and the maximum temperatures were recorded with a FLIR camera. (FIG. 1b).
However, it was observed that the heat was mainly localized at the top of the sample and not evenly distributed throughout the solution. […] An important detail observed was the temperature decrease after reaching a certain peak, most likely due to the irreversible degradation of ICG, which impedes heat generation (Wang, Y.-G., Kim, H., Mun, S., Kim, D. & Choi, Y).

[4] = 46 nmol four hours before PTT (5 minutes, 2 W/cm^2)

| SMILES | median survival [1, 4] | tumor growth after PTT ([1]; 46 nmol four hours before PTT, caliper measurement, compared to all the other groups) | highest temperature reached on tumor surface during PTT [1] | complete tumor disappearance after PTT ([1]; n=6, followed until 60 days after PTT) | bioluminescence signal after PTT ([1]; ratio FLUX (day X/day -1), versus all the other groups) | median survival ([1]; sham group: injected, no laser treatment) | H&E staining of tumor tissue [2] | uPAR signal in tumor tissue (immunological staining) [2] | temperature reached in solution [3] | maximum temperature of solution ([3]; 0.025 mg/ml in solution) | maximum temperature of solution ([3]; 0.05 mg/ml in solution) | maximum temperature of solution ([3]; 0.1 mg/ml in solution) | maximum temperature of solution ([3]; 0.5 mg/ml in solution) | maximum temperature in solution ([3]; 12 nmol) | maximum temperature in solution ([3]; 23 nmol) |
| --- | --- | --- | --- | --- | --- | --- | --- | --- | --- | --- | --- | --- | --- | --- | --- |
| CC(C)C[C@H](NC(=O)[C@H](Cc1ccc(O)cc1)NC(=O)C(CCCNC(=N)N)NC(=O)C(CO)NC(=O)C(Cc1ccccc1)NC(=O)[C@H](CC1CCCCC1)NC(=O)C(CC(=O)O)NC(=O)C(CCC(=O)O)NC(=O)C(CCC(=O)O)NC(=O)CCCCCN1\C(=C/C=C/C=C/C=C/C2=[N+](CCCCS(=O)(=O)[O-])c3ccc4ccccc4c3C2(C)C)C(C)(C)c2c1ccc1ccccc21)C(=O)N[C@@H](Cc1c[nH]c2ccccc12)C(=O)N[C@@H](CO)C(=O)O (stereo partly drawn) [ICG-Glu-Glu-AE105] | 13.5 days | delay in tumor growth | around 52 °C | one mouse even experienced complete tumor disappearance | reduced signal | 8 days | high degree of cell death; also recorded: tissue disruption and hemorrhage | decrease in uPAR signal | around 80 °C | 40.7±0.4 °C | 51.4±0.9 °C | 62.7±1.6 °C | 70.8±3 °C | – | – |
| CC1(C)C(/C=C/C=C/C=C/C=C2\N(CCCCS(=O)(=O)O)c3ccc4ccccc4c3C2(C)C)=[N+](CCCCS(=O)(=O)[O-])c2ccc3ccccc3c21 [ICG, indocyanine green] | 10 days | – | around 45 °C | – | – | – | – | – | around 80 °C | 50±0.2 °C | 68.8±0.7 °C | 71.4±1.1 °C | – | around 38 °C | below 50 °C |
